The target of this assay is T1, hCRTH2 receptor (Homo sapiens, UniProt Q9Y5Y4).
T1 construct: expressed in transfected cells; host or cells: HEK293
T1 sequence (Q9Y5Y4 1-395): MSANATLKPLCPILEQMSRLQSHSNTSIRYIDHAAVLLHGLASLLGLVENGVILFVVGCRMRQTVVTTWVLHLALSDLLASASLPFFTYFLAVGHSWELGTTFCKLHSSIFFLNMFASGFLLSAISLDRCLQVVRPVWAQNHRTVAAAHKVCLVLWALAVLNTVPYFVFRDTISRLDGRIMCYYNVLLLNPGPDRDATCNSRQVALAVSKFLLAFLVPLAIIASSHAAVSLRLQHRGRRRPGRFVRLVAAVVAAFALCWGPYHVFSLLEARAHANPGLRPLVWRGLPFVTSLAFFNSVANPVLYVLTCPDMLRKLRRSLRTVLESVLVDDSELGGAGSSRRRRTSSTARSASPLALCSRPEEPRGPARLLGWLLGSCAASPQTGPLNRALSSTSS
As to the kind of experiment: Radioligand displacement assay (3H-PGD2) on hCRTH2 receptor membranes. Type of assay: binding. The settings on record: antagonistic activity; 3H-PGD2 displacement on HEK293-hCRTH2 membrane fragments. On the procedure: First, recombinant HEK293-hCRTH2 cells were detached from culture plates into 5 ml buffer A/plate (Buffer A: 5 mM Tris, 1 mM MgCl2-6H2O pH=7.4) using a rubber policeman. Cells were then transferred into centrifugation tubes and centrifuged for 5 min at 400 g. The cell pellet was resuspended in the same buffer and tubes were frozen at −80° C. Cells were thawed and membrane fragments were generated by homogenization using a polytron homogenizer (30 seconds). The membrane fragments were then centrifuged at 3000 g for 20 minutes and resuspended in buffer C (Buffer C: 75 mM Tris, 25 mM MgCl2, 250 mM Saccharose pH 7.4). Aliquots of membrane fragments were stored at −20° C.
Binding assay was performed in a final assay volume of 250 μl. First, 25 μl of test compound, previously diluted in Binding-Buffer (Binding-Buffer: 50 mM Tris-Base, 100 mM NaCl, 1 mM EDTA, 0.1% BSA (protease free), 0.01% NaN3, 10 mM MnCl2, pH 7.0) was placed into each well. After addition of 75 μl Binding-Buffer, 50 μl of the radioligand ^3H-PGD2 (at 2.5 nM (220.000 dpm/well) from ANAWA ART0662) was added to each well. Binding assay was started by addition of 100 μl CRTH2 membrane fragments, reaching a final concentration of 20 μg/well. For non-specific binding, PGD2 was added to the reaction mixture to […] final concentration.
This assay mix was incubated for 90 minutes at room temperature and then filtered through a GF/C filter 96-well plate which was pre-soaked for 3 hours in 0.5% polyethyleneimine (PEI). The filter-wells were washed three times with ice cold Binding-Buffer. Then, 40 μl of Microscint-40 (Packard) was added to each well and the retained radioactivity quantified in a Topcount (Packard).

Broadly, the IC50 is the point on the concentration scale where inhibition reaches its midpoint. A higher IC50 goes with a need for much substance. In turn, `Cc1[nH]c2ccccc2c1CCC(=O)N1CCc2ccccc2C1c1cc(F)ccc1OCC(=O)O` (racemic) [Example 65, (±)-(4-Fluoro-2-{2-[3-(2-methyl-1H-indol-3-yl)-propionyl]-1,2,3,4-tetrahydro-isoquinolin-1-yl}-phenoxy)-acetic acid] came in with an IC50 of 191 nM. In other words, the sub-micromolar range.

Compound `Cn1cc(CCC(=O)N2CCc3ccccc3C2c2cc(F)ccc2OCC(=O)O)c2ccccc21` (racemic) [Example 66, (±)-(4-Fluoro-2-{2-[3-(1-methyl-1H-indol-3-yl)-propionyl]-1,2,3,4-tetrahydro-isoquinolin-1-yl}-phenoxy)-acetic acid] had an IC50 of 27.5 nM. Compared with the last compound, the IC50 is about 6.9-fold lower.

The compound `O=C(O)COc1ccc(F)cc1C1c2ccccc2CCN1C(=O)[C@@H]1C[C@H]1c1ccccc1` (mixture of isomers) [Example 67, (±)-{4-Fluoro-2-[2-(trans-2-phenyl-cyclopropanecarbonyl)-1,2,3,4-tetrahydro-isoquinolin-1-yl]-phenoxy}-acetic acid] showed an IC50 of 15.5 nM. Compared with the last compound, the IC50 is about 1.8-fold lower.

For the compound `O=C(O)COc1ccc(Cl)cc1C1c2ccccc2CCN1C(=O)CC1CC1` (racemic) [Example 68, (±)-{4-Chloro-2-[2-(2-cyclopropyl-acetyl)-1,2,3,4-tetrahydro-isoquinolin-1-yl]-phenoxy}-acetic acid], the IC50 is 508 nM.

Compound `O=C(O)COc1ccc(Cl)cc1C1c2ccccc2CCN1C(=O)C1=Cc2ccccc2OC1` (racemic) [Example 69, (±)-{4-Chloro-2-[2-(2H-chromene-3-carbonyl)-1,2,3,4-tetrahydro-isoquinolin-1-yl]-phenoxy}-acetic acid] registered a half-maximal inhibitory concentration (IC50) of 377 nM.

Turning to `COCCC(=O)N1CCc2ccccc2C1c1cc(Cl)ccc1OCC(=O)O` (racemic) [Example 70, (±)-{4-Chloro-2-[2-(3-methoxy-propionyl)-1,2,3,4-tetrahydro-isoquinolin-1-yl]-phenoxy}-acetic acid], the IC50 was determined as 139 nM.

As to `O=C(O)COc1ccc(Cl)cc1C1c2ccccc2CCN1C(=O)Cc1ccccc1Cl` (racemic) [Example 71, (±)-(4-Chloro-2-{2-[2-(2-chloro-phenyl)-acetyl]-1,2,3,4-tetrahydro-isoquinolin-1-yl}-phenoxy)-acetic acid], the IC50 was 291 nM.

The compound `O=C(O)COc1ccc(Cl)cc1C1c2ccccc2CCN1C(=O)Cn1ccc2ccccc21` (racemic) [Example 72, (±)-{4-Chloro-2-[2-(2-indol-1-yl-acetyl)-1,2,3,4-tetrahydro-isoquinolin-1-yl]-phenoxy}-acetic acid] had an IC50 of 44 nM. This IC50 lies about 6.6-fold lower than the previous one.

`Cc1[nH]c2ccccc2c1CCC(=O)N1CCc2ccccc2C1c1cc(Cl)ccc1OCC(=O)O` (racemic) [Example 73, (±)-(4-Chloro-2-{2-[3-(2-methyl-1H-indol-3-yl)-propionyl]-1,2,3,4-tetrahydro-isoquinolin-1-yl}-phenoxy)-acetic acid] gave an IC50 of 4.13 nM.

`COc1ccc2[nH]cc(CCC(=O)N3CCc4ccccc4C3c3cc(Cl)ccc3OCC(=O)O)c2c1` (racemic) [Example 74, (±)-(4-Chloro-2-{2-[3-(5-methoxy-1H-indol-3-yl)-propionyl]-1,2,3,4-tetrahydro-isoquinolin-1-yl}-phenoxy)-acetic acid]: the IC50 came to 1.42 nM.

Compound `Cc1ccc(OCC(=O)N2CCc3ccccc3C2c2cc(Cl)ccc2OCC(=O)O)c(C)n1` (racemic) [Example 75, (±)-(4-Chloro-2-{2-[2-(2,6-dimethyl-pyridin-3-yloxy)-acetyl]-1,2,3,4-tetrahydro-isoquinolin-1-yl}-phenoxy)-acetic acid] had a concentration for half-maximal inhibition (IC50) of 3.68 nM.

`Cn1cc(CCC(=O)N2CCc3ccccc3C2c2cc(Cl)ccc2OCC(=O)O)c2ccccc21` (racemic) [Example 76, (±)-(4-Chloro-2-{2-[3-(1-methyl-1H-indol-3-yl)-propionyl]-1,2,3,4-tetrahydro-isoquinolin-1-yl}-phenoxy)-acetic acid] had an IC50 of 4.46 nM. The IC50 values of the last two compounds are within 1.5-fold of each other.

`O=C(O)COc1ccc(Cl)cc1C1c2ccccc2CCN1C(=O)Cn1cnc2ccccc21` (racemic) [Example 78, (±)-{2-[2-(2-Benzoimidazol-1-yl-acetyl)-1,2,3,4-tetrahydro-isoquinolin-1-yl]-4-chloro-phenoxy}-acetic acid]: the IC50 stood at 51.1 nM. Compared with the last compound, the IC50 is about 11-fold higher.

`O=C(O)COc1ccc(Cl)cc1C1c2ccccc2CCN1C(=O)CN1CCCc2ccccc21` (racemic) [Example 79, (±)-{4-Chloro-2-[2-(2-3,4-dihydro-2H-quinolin-1-yl-acetyl)-1,2,3,4-tetrahydro-isoquinolin-1-yl]-phenoxy}-acetic acid] yielded an IC50 of 62.9 nM.

In turn, `O=C(O)COc1ccc(Cl)cc1C1c2ccccc2CCN1C(=O)Cn1cc2ccccc2n1` (racemic) [Example 80, (±)-{4-Chloro-2-[2-(2-indazol-2-yl-acetyl)-1,2,3,4-tetrahydro-isoquinolin-1-yl]-phenoxy}-acetic acid] displayed an IC50 of 46.9 nM.

The compound `O=C(O)COc1ccc(Cl)cc1C1c2ccccc2CCN1C(=O)CCc1cccc(C(F)(F)F)c1` (racemic) [Example 81, (±)-(4-Chloro-2-{2-[3-(3-trifluoromethyl-phenyl)-propionyl]-1,2,3,4-tetrahydro-isoquinolin-1-yl}-phenoxy)-acetic acid] came in with an IC50 of 27.5 nM. Compared with the last compound, the IC50 is about 1.7-fold lower.

On to `O=C(O)COc1ccc(Cl)cc1C1c2ccccc2CCN1C(=O)CCc1nccn1-c1ccccc1` (racemic) [Example 83, (±)-(4-Chloro-2-{2-[3-(1-phenyl-1H-imidazol-2-yl)-propionyl]-1,2,3,4-tetrahydro-isoquinolin-1-yl}-phenoxy)-acetic acid], for which the IC50 turned out to be 422 nM.

In turn, `Cc1cccc(-n2cncc2CCC(=O)N2CCc3ccccc3C2c2cc(Cl)ccc2OCC(=O)O)c1C` (racemic) [Example 85, (±)-[4-Chloro-2-(2-{3-[3-(2,3-dimethyl-phenyl)-3H-imidazol-4-yl]-propionyl}-1,2,3,4-tetrahydro-isoquinolin-1-yl)-phenoxy]-acetic acid] showed an IC50 of 18.9 nM.

For `O=C(O)COc1ccc(Cl)cc1C1c2ccccc2CCN1C(=O)COc1ccccc1-c1ccccc1` (racemic) [Example 86, (±)-(2-{2-[2-(Biphenyl-2-yloxy)-acetyl]-1,2,3,4-tetrahydro-isoquinolin-1-yl}-4-chloro-phenoxy)-acetic acid], the IC50 amounted to 422 nM.

The compound `O=C(O)COc1ccc(Cl)cc1C1c2ccccc2CCN1C(=O)CCOc1cccc(F)c1` (racemic) [Example 87, (±)-(4-Chloro-2-{2-[3-(3-fluoro-phenoxy)-propionyl]-1,2,3,4-tetrahydro-isoquinolin-1-yl}-phenoxy)-acetic acid] had an IC50 of 17.8 nM.

In turn, `Cc1ccc(OCCC(=O)N2CCc3ccccc3C2c2cc(Cl)ccc2OCC(=O)O)cc1` (racemic) [Example 88, (±)-{4-Chloro-2-[2-(3-p-tolyloxy-propionyl)-1,2,3,4-tetrahydro-isoquinolin-1-yl]-phenoxy}-acetic acid] gave an IC50 of 148 nM.

On to `O=C(O)COc1ccc(Cl)cc1C1c2ccccc2CCN1C(=O)CCOc1ccc(Cl)cc1` (racemic) [Example 89, (±)-(4-Chloro-2-{2-[3-(4-chloro-phenoxy)-propionyl]-1,2,3,4-tetrahydro-isoquinolin-1-yl}-phenoxy)-acetic acid], for which the IC50 was 37.9 nM.

In turn, `O=C(O)COc1ccc(Cl)cc1C1c2ccccc2CCN1C(=O)CCc1ccccc1C(F)(F)F` (racemic) [Example 90, (±)-(4-Chloro-2-{2-[3-(2-trifluoromethyl-phenyl)-propionyl]-1,2,3,4-tetrahydro-isoquinolin-1-yl}-phenoxy)-acetic acid] yielded an IC50 of 45.8 nM.

With `O=C(O)COc1ccc(Cl)cc1C1c2ccccc2CCN1C(=O)Cc1c[nH]c2ccc(F)cc12` (racemic) [Example 91, (±)-(4-Chloro-2-{2-[2-(5-fluoro-1H-indol-3-yl)-acetyl]-1,2,3,4-tetrahydro-isoquinolin-1-yl}-phenoxy)-acetic acid], the IC50 was determined as 113 nM.

The compound `COc1ccc2c(CC(=O)N3CCc4ccccc4C3c3cc(Cl)ccc3OCC(=O)O)coc2c1` (racemic) [Example 92, (±)-(4-Chloro-2-{2-[2-(6-methoxy-benzofuran-3-yl)-acetyl]-1,2,3,4-tetrahydro-isoquinolin-1-yl}-phenoxy)-acetic acid] returned an IC50 of 2.86 nM.

For the origin of these results see patent US8575158B2, “1-phenyl-substituted heterocyclyl derivatives and their use as prostaglandin D2 receptor modulators” (Actelion Pharmaceuticals Ltd., priority 2010, dated 2013).
